# From ChEMBL document CHEMBL1201862, “PubChem BioAssay data set” (2004)
#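 Tested at 5 concentrations; 48 h exposure; 96-well plates; endpoints linearly interpolated, else capped at highest concentration. GI50 = concentration required for 50% inhibition of growth.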 The source made the active and inactive calls. Cut-off read from the data, not from the text of the source: active = GI50 up to about 1.1 µM and inactive = higher.
# Legend:
# Assay in all cases: NCI anticancer screen, dose series, 48 h
# A549 = system: A549
# EKVX = system: EKVX
# HOP-92 = system: HOP-92
# K562 = system: K562
# MCF7 = system: MCF7
# MDA-N = system: MDA-N
# MOLT-4 = system: MOLT-4
# NCI-H226 = system: NCI-H226
# NCI-H522 = system: NCI-H522
# RPMI-8226 = system: RPMI-8226
# RXF 393 = system: RXF 393
# SF-539 = system: SF-539
# SK-MEL-5 = system: SK-MEL-5
# SN12C = system: SN12C
# SNB-19 = system: SNB-19
# SNB-75 = system: SNB-75
# T47D = system: T47D
# U-251 = system: U-251
# UACC-62 = system: UACC-62
# UO-31 = system: UO-31
SMILES,GI50 (A549),GI50 (EKVX),GI50 (HOP-92),GI50 (K562),GI50 (MCF7),GI50 (MDA-N),GI50 (MOLT-4),GI50 (NCI-H226),GI50 (NCI-H522),GI50 (RPMI-8226),GI50 (RXF 393),GI50 (SF-539),GI50 (SK-MEL-5),GI50 (SN12C),GI50 (SNB-19),GI50 (SNB-75),GI50 (T47D),GI50 (U-251),GI50 (UACC-62),GI50 (UO-31)
COc1ccc(/C=C/C(=O)Oc2ccc(/C=C3\CCCCC3=O)cc2)cc1,80.5 µM (inactive),> 100 µM (inactive),> 66.1 µM (inactive),> 100 µM (inactive),> 100 µM (inactive),> 100 µM (inactive),2.51 µM (inactive),25.3 µM (inactive),> 100 µM (inactive),3.61 µM (inactive),> 100 µM (inactive),> 100 µM (inactive),> 100 µM (inactive),50.9 µM (inactive),> 66.1 µM (inactive),> 88.3 µM (inactive),> 100 µM (inactive),> 94.6 µM (inactive),2.96 µM (inactive),> 100 µM (inactive)
COC(=O)C(CCCCN)NC(=O)C(CCCCN)NC(C)=O.Cc1ccc(C(=O)Nc2ccc(S(=O)(=O)O)c3cc(S(=O)(=O)O)cc(S(=O)(=O)O)c23)cc1NC(=O)c1cccc(NC(=O)Nc2cccc(C(=O)Nc3cc(C(=O)Nc4ccc(S(=O)(=O)O)c5cc(S(=O)(=O)O)cc(S(=O)(=O)O)c45)ccc3C)c2)c1,> 50 µM (inactive),> 50 µM (inactive),> 50 µM (inactive),> 50 µM (inactive),> 50 µM (inactive),> 50 µM (inactive),> 50 µM (inactive),> 50 µM (inactive),> 50 µM (inactive),> 50 µM (inactive),> 50 µM (inactive),> 50 µM (inactive),> 50 µM (inactive),> 50 µM (inactive),> 50 µM (inactive),7.59 µM (inactive),> 50 µM (inactive),> 50 µM (inactive),> 50 µM (inactive),> 50 µM (inactive)
CC(NC(=O)c1ccccc1)NC(=O)C(C)C(=O)Nc1ccccc1 (centres undefined),> 100 µM (inactive),> 100 µM (inactive),49.1 µM (inactive),> 100 µM (inactive),> 100 µM (inactive),> 100 µM (inactive),> 100 µM (inactive),89.5 µM (inactive),> 100 µM (inactive),> 100 µM (inactive),89.1 µM (inactive),> 100 µM (inactive),> 100 µM (inactive),> 100 µM (inactive),27.4 µM (inactive),33.3 µM (inactive),> 100 µM (inactive),> 100 µM (inactive),> 100 µM (inactive),> 100 µM (inactive)
CC(C)OP(=O)(OC(C)C)c1c(N)n[nH]c1Nc1ccccc1,> 100 µM (inactive),> 100 µM (inactive),> 100 µM (inactive),> 100 µM (inactive),> 100 µM (inactive),> 100 µM (inactive),> 100 µM (inactive),> 100 µM (inactive),> 100 µM (inactive),> 100 µM (inactive),> 100 µM (inactive),> 100 µM (inactive),> 100 µM (inactive),–,> 100 µM (inactive),> 100 µM (inactive),> 100 µM (inactive),> 100 µM (inactive),> 100 µM (inactive),> 100 µM (inactive)
NN/C(=N\S(=O)(=O)c1cc2ccccc2o1)Nc1ccc(Cl)cc1,> 100 µM (inactive),91.2 µM (inactive),20.4 µM (inactive),> 100 µM (inactive),> 100 µM (inactive),> 100 µM (inactive),> 100 µM (inactive),> 100 µM (inactive),24.4 µM (inactive),> 100 µM (inactive),20.7 µM (inactive),> 100 µM (inactive),> 100 µM (inactive),> 100 µM (inactive),60.8 µM (inactive),13.1 µM (inactive),28.2 µM (inactive),46.6 µM (inactive),> 100 µM (inactive),> 100 µM (inactive)
O=C(Nc1ccc(Cl)cc1)c1cc(S(=O)(=O)NC2=Nc3ccc(Cl)cc3C(c3ccccc3)N2)c(SSc2cc(Cl)c(C(=O)Nc3ccc(Cl)cc3)cc2S(=O)(=O)NC2=Nc3ccc(Cl)cc3C(c3ccccc3)N2)cc1Cl (centres undefined),> 100 µM (inactive),> 100 µM (inactive),83.4 µM (inactive),46.8 µM (inactive),> 100 µM (inactive),> 100 µM (inactive),25.9 µM (inactive),> 100 µM (inactive),> 100 µM (inactive),97.1 µM (inactive),> 100 µM (inactive),> 100 µM (inactive),> 73.3 µM (inactive),> 100 µM (inactive),> 100 µM (inactive),> 100 µM (inactive),> 100 µM (inactive),> 100 µM (inactive),> 90.4 µM (inactive),> 100 µM (inactive)
COc1cc(-c2cc(=O)c3cc4c(=O)cc(-c5cc(OC)c(OC)c(OC)c5)oc4cc3o2)cc(OC)c1OC,88.9 µM (inactive),> 100 µM (inactive),14.6 µM (inactive),> 41.9 µM (inactive),> 100 µM (inactive),> 100 µM (inactive),> 88.7 µM (inactive),12.9 µM (inactive),27.4 µM (inactive),> 100 µM (inactive),7.98 µM (inactive),58.3 µM (inactive),> 100 µM (inactive),32.4 µM (inactive),16.4 µM (inactive),13.5 µM (inactive),> 54.8 µM (inactive),8.59 µM (inactive),13.9 µM (inactive),> 100 µM (inactive)
COc1c(O)c(O)cc2c1-c1ccc(OC)c(=O)cc1C(NC(C)=O)CC2 (centres undefined),37.4 µM (inactive),25.5 µM (inactive),2.7 µM (inactive),3.57 µM (inactive),2.61 µM (inactive),1.69 µM (inactive),6.24 µM (inactive),21 µM (inactive),1.84 µM (inactive),10.9 µM (inactive),2.84 µM (inactive),2.81 µM (inactive),2.52 µM (inactive),8.95 µM (inactive),5.51 µM (inactive),4.24 µM (inactive),> 100 µM (inactive),4.03 µM (inactive),4.36 µM (inactive),56.1 µM (inactive)
CCNCC(=O)O[C@]1(CC)C(=O)OCc2c1cc1n(c2=O)Cc2cc3ccccc3nc2-1,0.157 µM (active),2.44 µM (inactive),1.16 µM (inactive),0.598 µM (active),0.0693 µM (active),1.36 µM (inactive),0.0195 µM (active),0.115 µM (active),0.221 µM (active),0.237 µM (active),0.264 µM (active),0.0466 µM (active),0.267 µM (active),0.0619 µM (active),0.108 µM (active),0.284 µM (active),0.203 µM (active),0.0614 µM (active),0.0468 µM (active),0.158 µM (active)
Cc1ccc(S(=O)(=O)N/N=C2/C3CC4CCC2C4C3)cc1 (centres undefined),> 100 µM (inactive),> 100 µM (inactive),> 100 µM (inactive),–,> 100 µM (inactive),> 100 µM (inactive),–,> 100 µM (inactive),> 100 µM (inactive),> 100 µM (inactive),> 100 µM (inactive),> 100 µM (inactive),> 100 µM (inactive),> 100 µM (inactive),–,> 100 µM (inactive),> 100 µM (inactive),> 100 µM (inactive),> 100 µM (inactive),> 100 µM (inactive)
O=C(CCSC1=NCCCN1)c1ccc(F)cc1,20.4 µM (inactive),12.7 µM (inactive),20.6 µM (inactive),3.13 µM (inactive),4.41 µM (inactive),17.3 µM (inactive),2.62 µM (inactive),17.4 µM (inactive),2.08 µM (inactive),2.15 µM (inactive),17.2 µM (inactive),15.7 µM (inactive),18.9 µM (inactive),22.2 µM (inactive),22.1 µM (inactive),19 µM (inactive),21.9 µM (inactive),17.5 µM (inactive),17.2 µM (inactive),5.83 µM (inactive)
Cc1ccc(/N=N/c2c(C)nn(C(=O)CC(=O)Nc3ccc(Cl)cc3)c2C)cc1C,> 100 µM (inactive),28.2 µM (inactive),12.4 µM (inactive),–,> 100 µM (inactive),> 100 µM (inactive),28.7 µM (inactive),> 100 µM (inactive),32.2 µM (inactive),> 100 µM (inactive),20.7 µM (inactive),26 µM (inactive),> 100 µM (inactive),> 100 µM (inactive),15.5 µM (inactive),21 µM (inactive),> 100 µM (inactive),26.6 µM (inactive),79.4 µM (inactive),37.5 µM (inactive)
CSc1nc2c3ccccc3ccn2c1C(=O)N/N=C/c1ccccc1,56.9 µM (inactive),> 100 µM (inactive),1.65 µM (inactive),> 100 µM (inactive),> 46.3 µM (inactive),97.3 µM (inactive),> 100 µM (inactive),36 µM (inactive),> 94.4 µM (inactive),> 100 µM (inactive),32 µM (inactive),1.43 µM (inactive),> 74.8 µM (inactive),28.1 µM (inactive),–,> 42.7 µM (inactive),27.9 µM (inactive),15.8 µM (inactive),> 100 µM (inactive),21.8 µM (inactive)
COc1cc(C2c3[nH]c4ccccc4c3C[C@H]3COC(=O)N23)cc(OC)c1OC (some centres undefined),0.101 µM (active),< 0.01 µM (active),0.92 µM (active),0.0349 µM (active),0.0406 µM (active),0.0181 µM (active),0.0966 µM (active),0.0574 µM (active),0.015 µM (active),0.0676 µM (active),< 0.01 µM (active),0.035 µM (active),0.0266 µM (active),0.163 µM (active),0.0803 µM (active),0.0923 µM (active),> 10 µM (inactive),0.0445 µM (active),0.0348 µM (active),0.0431 µM (active)
